Test results published in publication PMC10733463, “Berberine-microbiota interplay: orchestrating gut health through modulation of the gut microbiota and metabolic transformation into bioactive metabolites” (Frontiers in Pharmacology, 2023).

Test system: caecal microbiota cultures
Assay: 16S sequencing of total (DNA) and active (cDNA) community in caecal microbiota cultures, BBR vs Control
Type: cell-based, broiler chicken
Settings: 48 h

COc1ccc2cc3[n+](cc2c1OC)CCc1cc2c(cc1-3)OCO2 [Berberine, Berberine chloride]
L2FC BBRDNA vs ControlDNA: 0.44
L2FC BBRRNA vs BBRDNA: 3.40
L2FC BBRRNA vs ControlRNA: 1.34
L2FC BBRRNA vs ControlRNA (OTU 40798 (Butyricicoccus), active (cDNA) community): 0.45
L2FC BBRRNA vs BBRDNA (OTU 40798 (Butyricicoccus), active vs total community in BBR group): -4.40
L2FC BBRDNA vs ControlDNA (OTU 40798 (Butyricicoccus), total (DNA) community): 0.83
L2FC BBRRNA vs ControlRNA (OTU 109633 (Eubacterium), active (cDNA) community): 1.92
L2FC BBRRNA vs BBRDNA (OTU 109633 (Eubacterium), active vs total community in BBR group): -0.64
L2FC BBRDNA vs ControlDNA (OTU 109633 (Eubacterium), total (DNA) community): 1.75
L2FC BBRRNA vs ControlRNA (OTU 129401 (Family_Ruminococcaceae), active (cDNA) community): 1.00
L2FC BBRRNA vs BBRDNA (OTU 129401 (Family_Ruminococcaceae), active vs total community in BBR group): 1.99
L2FC BBRDNA vs ControlDNA (OTU 129401 (Family_Ruminococcaceae), total (DNA) community): 0.84
L2FC BBRRNA vs ControlRNA (OTU 157573 (Alistipes), active (cDNA) community): -0.29
L2FC BBRRNA vs BBRDNA (OTU 157573 (Alistipes), active vs total community in BBR group): 1.91
L2FC BBRDNA vs ControlDNA (OTU 157573 (Alistipes), total (DNA) community): 0.19
L2FC BBRRNA vs ControlRNA (OTU 157772 (uncultured Ruminococcaceae), active (cDNA) community): -0.27
L2FC BBRRNA vs BBRDNA (OTU 157772 (uncultured Ruminococcaceae), active vs total community in BBR group): 1.68
L2FC BBRDNA vs ControlDNA (OTU 157772 (uncultured Ruminococcaceae), total (DNA) community): -0.36
L2FC BBRRNA vs ControlRNA (OTU 180099 (uncultured Lachnospiraceae), active (cDNA) community): -0.96
L2FC BBRRNA vs BBRDNA (OTU 180099 (uncultured Lachnospiraceae), active vs total community in BBR group): -0.59
L2FC BBRDNA vs ControlDNA (OTU 180099 (uncultured Lachnospiraceae), total (DNA) community): -1.55
L2FC BBRRNA vs ControlRNA (OTU 186881 (Anaerofilum), active (cDNA) community): -1.11
L2FC BBRRNA vs BBRDNA (OTU 186881 (Anaerofilum), active vs total community in BBR group): -0.59
L2FC BBRDNA vs ControlDNA (OTU 186881 (Anaerofilum), total (DNA) community): -1.53
L2FC BBRRNA vs ControlRNA (OTU 193240 (Butyricicoccus), active (cDNA) community): -1.08
L2FC BBRRNA vs BBRDNA (OTU 193240 (Butyricicoccus), active vs total community in BBR group): -1.42
L2FC BBRDNA vs ControlDNA (OTU 193240 (Butyricicoccus), total (DNA) community): -1.34
L2FC BBRRNA vs ControlRNA (OTU 196831 (Oscillibacter), active (cDNA) community): 0.14
L2FC BBRRNA vs BBRDNA (OTU 196831 (Oscillibacter), active vs total community in BBR group): 2.09
L2FC BBRDNA vs ControlDNA (OTU 196831 (Oscillibacter), total (DNA) community): 0.24
L2FC BBRRNA vs ControlRNA (OTU 199555 ([Ruminococcus] torques group), active (cDNA) community): -1.39
L2FC BBRRNA vs BBRDNA (OTU 199555 ([Ruminococcus] torques group), active vs total community in BBR group): -0.15
L2FC BBRDNA vs ControlDNA (OTU 199555 ([Ruminococcus] torques group), total (DNA) community): -1.72
L2FC BBRRNA vs ControlRNA (OTU 233953 (Erysipelatoclostridium), active (cDNA) community): -1.85
L2FC BBRRNA vs BBRDNA (OTU 233953 (Erysipelatoclostridium), active vs total community in BBR group): -0.21
L2FC BBRDNA vs ControlDNA (OTU 233953 (Erysipelatoclostridium), total (DNA) community): -1.14
L2FC BBRRNA vs ControlRNA (OTU 234912 (Ruminococcaceae UCG-013), active (cDNA) community): -2.52
L2FC BBRRNA vs BBRDNA (OTU 234912 (Ruminococcaceae UCG-013), active vs total community in BBR group): -0.46
L2FC BBRDNA vs ControlDNA (OTU 234912 (Ruminococcaceae UCG-013), total (DNA) community): -3.19
L2FC BBRRNA vs ControlRNA (OTU 240271 (uncultured Ruminococcaceae), active (cDNA) community): 0.20
L2FC BBRRNA vs BBRDNA (OTU 240271 (uncultured Ruminococcaceae), active vs total community in BBR group): 1.89
L2FC BBRDNA vs ControlDNA (OTU 240271 (uncultured Ruminococcaceae), total (DNA) community): 0.33
L2FC BBRRNA vs ControlRNA (OTU 249142 ([Ruminococcus] torques group), active (cDNA) community): -3.17
L2FC BBRRNA vs BBRDNA (OTU 249142 ([Ruminococcus] torques group), active vs total community in BBR group): -0.87
L2FC BBRDNA vs ControlDNA (OTU 249142 ([Ruminococcus] torques group), total (DNA) community): -2.54
L2FC BBRRNA vs ControlRNA (OTU 293975 (uncultured Lachnospiraceae), active (cDNA) community): -2.01
L2FC BBRRNA vs BBRDNA (OTU 293975 (uncultured Lachnospiraceae), active vs total community in BBR group): 0.18
L2FC BBRDNA vs ControlDNA (OTU 293975 (uncultured Lachnospiraceae), total (DNA) community): -1.62
L2FC BBRRNA vs ControlRNA (OTU 294545 (Ruminiclostridium), active (cDNA) community): -0.23
L2FC BBRRNA vs BBRDNA (OTU 294545 (Ruminiclostridium), active vs total community in BBR group): 1.73
L2FC BBRDNA vs ControlDNA (OTU 294545 (Ruminiclostridium), total (DNA) community): 0.21
L2FC BBRRNA vs ControlRNA (OTU 308157 (Butyricicoccus), active (cDNA) community): 0.37
L2FC BBRRNA vs BBRDNA (OTU 308157 (Butyricicoccus), active vs total community in BBR group): -1.55
L2FC BBRDNA vs ControlDNA (OTU 308157 (Butyricicoccus), total (DNA) community): 0.47
L2FC BBRRNA vs ControlRNA (OTU 315223 (Anaerotruncus), active (cDNA) community): 0.81
L2FC BBRRNA vs BBRDNA (OTU 315223 (Anaerotruncus), active vs total community in BBR group): 2.28
L2FC BBRDNA vs ControlDNA (OTU 315223 (Anaerotruncus), total (DNA) community): 0.02
L2FC BBRRNA vs ControlRNA (OTU 349246 (Ruminiclostridium 9), active (cDNA) community): -1.09
L2FC BBRRNA vs BBRDNA (OTU 349246 (Ruminiclostridium 9), active vs total community in BBR group): 1.04
L2FC BBRDNA vs ControlDNA (OTU 349246 (Ruminiclostridium 9), total (DNA) community): -0.39
L2FC BBRRNA vs ControlRNA (OTU 350256 (Intestinimonas), active (cDNA) community): -0.58
L2FC BBRRNA vs BBRDNA (OTU 350256 (Intestinimonas), active vs total community in BBR group): 1.65
L2FC BBRDNA vs ControlDNA (OTU 350256 (Intestinimonas), total (DNA) community): -0.23
L2FC BBRRNA vs ControlRNA (OTU 356073 ([Eubacterium] xylanophilum group), active (cDNA) community): -1.98
L2FC BBRRNA vs BBRDNA (OTU 356073 ([Eubacterium] xylanophilum group), active vs total community in BBR group): -1.05
L2FC BBRDNA vs ControlDNA (OTU 356073 ([Eubacterium] xylanophilum group), total (DNA) community): -1.79
L2FC BBRRNA vs ControlRNA (OTU 362793 (Oscillibacter), active (cDNA) community): 0.13
L2FC BBRRNA vs BBRDNA (OTU 362793 (Oscillibacter), active vs total community in BBR group): 2.11
L2FC BBRDNA vs ControlDNA (OTU 362793 (Oscillibacter), total (DNA) community): 0.33
L2FC BBRRNA vs ControlRNA (OTU 364341 (Family_Ruminococcaceae), active (cDNA) community): 0.25
L2FC BBRRNA vs BBRDNA (OTU 364341 (Family_Ruminococcaceae), active vs total community in BBR group): 1.56
L2FC BBRDNA vs ControlDNA (OTU 364341 (Family_Ruminococcaceae), total (DNA) community): 0.20
L2FC BBRRNA vs ControlRNA (OTU 368615 (uncultured Lachnospiraceae), active (cDNA) community): -0.96
L2FC BBRRNA vs BBRDNA (OTU 368615 (uncultured Lachnospiraceae), active vs total community in BBR group): -1.57
L2FC BBRDNA vs ControlDNA (OTU 368615 (uncultured Lachnospiraceae), total (DNA) community): -0.96
L2FC BBRRNA vs ControlRNA (OTU 408513 (Ruminiclostridium 9), active (cDNA) community): -3.12
L2FC BBRRNA vs BBRDNA (OTU 408513 (Ruminiclostridium 9), active vs total community in BBR group): 1.43
L2FC BBRDNA vs ControlDNA (OTU 408513 (Ruminiclostridium 9), total (DNA) community): -2.29
L2FC BBRRNA vs ControlRNA (OTU 443620 (uncultured Ruminococcaceae), active (cDNA) community): -0.74
L2FC BBRRNA vs BBRDNA (OTU 443620 (uncultured Ruminococcaceae), active vs total community in BBR group): 0.61
L2FC BBRDNA vs ControlDNA (OTU 443620 (uncultured Ruminococcaceae), total (DNA) community): 0.83
L2FC BBRRNA vs ControlRNA (OTU 461487 (Ruminococcaceae UCG-014), active (cDNA) community): -0.55
L2FC BBRRNA vs BBRDNA (OTU 461487 (Ruminococcaceae UCG-014), active vs total community in BBR group): -3.30
L2FC BBRDNA vs ControlDNA (OTU 461487 (Ruminococcaceae UCG-014), total (DNA) community): -0.15
L2FC BBRRNA vs ControlRNA (OTU 510295 (Fournierella), active (cDNA) community): 0.35
L2FC BBRRNA vs BBRDNA (OTU 510295 (Fournierella), active vs total community in BBR group): -2.43
L2FC BBRDNA vs ControlDNA (OTU 510295 (Fournierella), total (DNA) community): 0.86
L2FC BBRRNA vs ControlRNA (OTU 519763 (Intestinimonas), active (cDNA) community): 1.22
L2FC BBRRNA vs BBRDNA (OTU 519763 (Intestinimonas), active vs total community in BBR group): 2.52
L2FC BBRDNA vs ControlDNA (OTU 519763 (Intestinimonas), total (DNA) community): 1.10
